Patent US20230364032A1, “USE OF 2-HOBA TO TREAT ATHEROSCLEROSIS” (Vanderbilt University, priority 2020, published 2023)
“Also recorded” adds a separate entry of the source.

Columns and labels:
MDA = assay: MDA-HOBA (propenal-HOBA) adducts in urine and tissues after oral gavage (LC-MS/MS); format: in vivo, mouse
Description: Urine samples were collected for 16 h after oral gavage of male Ldlr^−/− mice on a WD with either 2-HOBA or 4-HOBA. After 16 h, the Ldlr^−/− mice were sacrificed and the HOBA-propenal adducts in urine (14A), liver (14B), kidney (14C) and spleen (14D) were measured using LC-MS/MS as described in methods (14A-D) (Mann-Whitney test, ** indicates p<0.01 and *** indicates p<0.001).
Ldlr^−/− and WT on C57BL/6 background mice were obtained from the Jackson Laboratory. Animal protocols were performed according to the regulations of Vanderbilt University's Institutional Animal Care and Usage Committee. Mice were maintained on chow or a Western-type diet containing 21% milk fat and 0.15% cholesterol (Teklad). Eight week old, female Ldlr^−/− mice on a chow diet were pretreated with vehicle alone (Water) or containing either 1 g/L of 4-HOBA or 1 g/L of 2-HOBA. 4-HOBA (as hydrochloride salt) was synthesized as previously described^21. 2-HOBA (as the acetate salt, CAS 1206675-01-5) was manufactured by TSI Co., Ltd. (Missoula, MT) and obtained from Metabolic Technologies, Inc., Ames, IA^24. A commercial production lot was used (Lot 16120312), and the purity of the commercial lot was verified to be >99% via HPLC and NMR spectroscopy^24. After two weeks, the mice continued to receive these treatments but were switched to a western diet for 16 weeks to induce hypercholesterolemia and atherosclerosis. Similarly, 12 week-old male Ldlr^−/− mice were pretreated with vehicle alone (water) or containing 1 g/L of 2-HOBA for two weeks and were then switched to a western diet for 16 weeks to induce hypercholesterolemia and atherosclerosis, while continuing the treatment with 2-HOBA or water alone^58, 59, 60 Based on the average weight and daily consumption of water per mouse the estimated daily dosage with 1 g/L of 2-HOBA is 200 mg/Kg. […] Eight week old, male Ldlr^−/− mice were fed a western diet for 16 weeks and were continuously treated with water containing either 2-HOBA or 4-HOBA. Urine samples were collected using metabolic cages (2 mice in one cage) during 18 h after oral gavage with either 2-HOBA or 4-HOBA (5 mg each mouse).
The scavenger-MDA adducts were extracted, (1) from homogenate of tissue (equivalent of 30 mg) or (2) from cells (1 ml), three times with 500 μl of ethyl acetate. The extract was dried down, resuspended in 100 μl of ACN-water (1:1, v/v with 0.1% formic acid), vortexed, and filtered through a 0.22 μm spin X column. The reactions were analyzed by LC-EST/MS/MS using the column a Phenomenex Kinetex column at a flow rate of 0.1 ml/min. The gradient consisted of Solvent A, water with 0.2% formic acid and solvent B, acetonitrile with 0.2% formic acid. The gradient was as follows: 0-2 min 99.9% A, 2-9 min 99.9-0.1% A, 9-12 min 99.9% B. The mass spectrometer was operated in the positive ion mode, and the spray voltage was maintained at 5,000 V. Nitrogen was used for the sheath gas and auxiliary gas at pressures of 30 and 5 arbitrary units, respectively. The optimized skimmer offset was set at 10, capillary temperature was 300° C., and the tube lens voltage was specific for each compound. SRM of specific transition ions for the precursor ions at m/z 178→107 (propenal-HOBA adduct).

[1] = system: Apoe−/− macrophage foam cells; assay: Capacity of HDL from treated mice to reduce macrophage cholesterol; format: cell-based, mouse; details: for efficiency of HDL at reducing cholesterol stores in Apoe−/− macrophage foam cells: HDL isolated from treated Ldlr−/− mice, 25 μg protein/ml, 24 h
Description: FIGS. 7A-7G show the effects of 2-HOBA on MDA-HDL adducts and HDL function. (7A) The levels or MDA adducts were measured by ELISA in HDL isolated from Ldlr mice treated as described in FIG. 1. Data are presented as mean±SEM (N=8 pet group), *** p<0.001, One-way ANOVA with Bonferroni's post hoc test. (7B) Western blots of apoAl and MDA-apoAl in HDL isolated from plasma by immunoprecipitation using primary anti-apoAl antibody. Ldlf mice were treated as described In FIG. 1 and apoAl and MDA-apoAl from Ldlr mice consuming a chow diet are included f0t comparison. (7C) Quantitation using lmageJ software of the mean density ratio (arbitrary units) of MDA-apoAl to apoAl detected by Western blotting (7B). (7D The HDL was isolated from the plasma of Ld/r-mice consuming a western diet for 16 weeks and treated with 2-HOBA or 4-HOBA or vehicle. Cholesterol enriched macrophages were incubated for 24 h with HDL (25 μg protein/ml). and the % reduction in cellular cholesterol content measured. Data presented as mean±SEM. N=7 per group, *p<0.05.**p<0.01, One-way ANOVA with Bonferroni's post hoc test (7E) The MDA adducts were measured by ELISA in HDL isolated from control or FH subjects before and after LDL apheresis. N=7 or 8, ***p<0.001, One-way ANOVA with Bonferroni's post hoc test. (7F) The MDA-Lysyl crosslink content in HDL from control or FH subjects (n=6 per group), p=0.02, Mann-Whitney test (7G) The capacity of HDL from control or FH subjects pre and post LDL apheresis (n=7 per group) to reduce the cholesterol content of apoE macrophages.
HDL was isolated from mouse plasma using HDL Purification Kit (Cell BioLabs, Inc.) following the manufacturer's protocol. Briefly, apoB containing lipoproteins and HDL were sequentially precipitated with dextran sulfate. The HDL was then resuspended and washed. After removing the dextran sulfate, the HDL was dialyzed against PBS. […] Cellular cholesterol was measured before and after incubation with HDL using an enzymatic cholesterol assay as described^61.

[2] = 16 h post oral gavage, Ldlr−/− mice

NCc1ccccc1O [2-HOBA, 2-hydroxybenzylamine]
propenal-HOBA adducts in kidney, 2-HOBA versus 4-HOBA (MDA; [2]): 5 fold
propenal-HOBA adducts in liver, 2-HOBA versus 4-HOBA (MDA; [2]): 3 fold
propenal-HOBA adducts in spleen, 2-HOBA versus 4-HOBA (MDA; [2]): 11 fold
formation of MDA-HOBA adducts in vivo (MDA; Ldlr−/− mice on WD, oral gavage): abundantly formed; also recorded: more readily formed
MDA-2-HOBA versus MDA-4-HOBA (propenal-HOBA) adducts in urine (MDA; urine collected during 16 h after oral gavage (5 mg), Ldlr−/− mice on western diet 16 weeks): 19 fold
capacity of mouse HDL to reduce macrophage cholesterol stores ([1]; HDL from treated Ldlr−/− mice): increased; also recorded: enhanced capacity
efficiency of HDL at reducing cholesterol stores in Apoe−/− macrophage foam cells ([1]; versus 4-HOBA treated mice): 1.7 fold
efficiency of HDL at reducing cholesterol stores in Apoe−/− macrophage foam cells ([1]; versus vehicle treated mice): 2.2 fold
